{"source": "the OligoGym collection", "note": "Bases are written 5' to 3'; sugars and linkages follow in the same order, as letters with counts (s phosphorothioate, o phosphodiester; PS: all linkages phosphorothioate). The collection does not say whether C is 5-methylated. l = locked nucleic acid (LNA); d = 2'-deoxy (DNA)", "data": [{"biological_target": "Tau", "assay": "rat primary cortical neurons, FLIPR, 25 uM ASO", "values": [{"sequence": "GTCCACAAACCAACTCA (sugars l3 d11 l3, PS)", "calcium oscillation score": "91.3 % of control"}, {"sequence": "CTCTTTGAACACCCCATC (sugars l3 d13 l2, PS)", "calcium oscillation score": "41.9 % of control"}, {"sequence": "TTAGCCCTAAAGTCCCAGGT (sugars l3 d14 l3, PS)", "calcium oscillation score": "86.3 % of control"}, {"sequence": "CTAAGGCAAGGCCTAT (sugars l3 d10 l3, PS)", "calcium oscillation score": "83 % of control"}, {"sequence": "CAAGAGTCACTGCACTGCAT (sugars l3 d14 l3, PS)", "calcium oscillation score": "50 % of control"}, {"sequence": "TCCCCATTTATCCTTCAT (sugars l2 d13 l3, PS)", "calcium oscillation score": "77.3 % of control"}, {"sequence": "GGCATGATTGTGGGCT (sugars l3 d10 l3, PS)", "calcium oscillation score": "6.12 % of control"}, {"sequence": "AATGTCCAAAAATCCCC (sugars l2 d11 l4, PS)", "calcium oscillation score": "53 % of control"}, {"sequence": "CCCGTCTTTGCTTTTACTGA (sugars l3 d14 l3, PS)", "calcium oscillation score": "0 % of control"}, {"sequence": "CTTTATTTCCAAATTCACT (sugars l3 d11 l2 d1 l2, PS)", "calcium oscillation score": "116 % of control"}, {"sequence": "ATTAACCAATTAACCG (sugars l3 d10 l3, PS)", "calcium oscillation score": "103 % of control"}, {"sequence": "TGTGATGCAGGAGTTG (sugars l3 d10 l3, PS)", "calcium oscillation score": "28.7 % of control"}, {"sequence": "AACCAATTAACCGAACTGCG (sugars l3 d14 l3, PS)", "calcium oscillation score": "18.1 % of control"}, {"sequence": "GCTGAGGTGCTCTGGT (sugars l3 d10 l3, PS)", "calcium oscillation score": "19.2 % of control"}, {"sequence": "CACCTCATTAAGATCAC (sugars l3 d10 l4, PS)", "calcium oscillation score": "76.6 % of control"}, {"sequence": "CACTCTCTGCATATATA (sugars l4 d10 l3, PS)", "calcium oscillation score": "48 % of control"}, {"sequence": "CTTTATTTCCAAATTCACTT (sugars l2 d16 l2, PS)", "calcium oscillation score": "195 % of control"}, {"sequence": "CTACATTTTTGTCTCAT (sugars l4 d10 l3, PS)", "calcium oscillation score": "65.4 % of control"}, {"sequence": "CCCCACTTTTAATTAAA (sugars l4 d10 l3, PS)", "calcium oscillation score": "99.7 % of control"}, {"sequence": "TCCCAACTCTTTGAACAC (sugars l3 d13 l2, PS)", "calcium oscillation score": "83.5 % of control"}, {"sequence": "ACCCATTATCTGCTCC (sugars l3 d11 l2, PS)", "calcium oscillation score": "50.9 % of control"}, {"sequence": "CATAGCACTTACTACTT (sugars l4 d10 l3, PS)", "calcium oscillation score": "84.1 % of control"}, {"sequence": "TGGACCACCTTACCAC (sugars l3 d10 l3, PS)", "calcium oscillation score": "48.1 % of control"}, {"sequence": "GCTCTTCAAATCATTC (sugars l4 d8 l4, PS)", "calcium oscillation score": "58.3 % of control"}, {"sequence": "AAAATCCTTAATTTAACCAC (sugars l4 d12 l4, PS)", "calcium oscillation score": "64 % of control"}, {"sequence": "CCTCCTTAACCATTAG (sugars l2 d11 l3, PS)", "calcium oscillation score": "54.5 % of control"}, {"sequence": "TCCATTTTCTGACTCTA (sugars l3 d12 l2, PS)", "calcium oscillation score": "40.4 % of control"}, {"sequence": "GGTGATATTGTCCAGGGACC (sugars l3 d14 l3, PS)", "calcium oscillation score": "0 % of control"}, {"sequence": "TGATGGATGTTGCCTAATGA (sugars l3 d14 l3, PS)", "calcium oscillation score": "0 % of control"}, {"sequence": "TTACAAAGTCCACTTTC (sugars l4 d9 l4, PS)", "calcium oscillation score": "69 % of control"}, {"sequence": "ACCATCATACTCCAAG (sugars l4 d9 l3, PS)", "calcium oscillation score": "76 % of control"}, {"sequence": "ACCGAACTGCGAGGAGCAGC (sugars l3 d14 l3, PS)", "calcium oscillation score": "0 % of control"}, {"sequence": "CACTCTAACATCTTAG (sugars l4 d8 l4, PS)", "calcium oscillation score": "77.6 % of control"}, {"sequence": "CATCAGTCTTATCTCCC (sugars l2 d13 l2, PS)", "calcium oscillation score": "54.7 % of control"}, {"sequence": "TCCCGTCTTTGCTTTTACTG (sugars l3 d14 l3, PS)", "calcium oscillation score": "3.7 % of control"}, {"sequence": "CAAGAGGCACAAGT (sugars l3 d8 l3, PS)", "calcium oscillation score": "36.2 % of control"}, {"sequence": "TTTGTAGACTATTTG (sugars l3 d9 l3, PS)", "calcium oscillation score": "0 % of control"}, {"sequence": "GGCGAGTCTACCATGTCGAT (sugars l3 d14 l3, PS)", "calcium oscillation score": "91.5 % of control"}, {"sequence": "CCAAAACATTCTCACCAAAC (sugars l3 d15 l2, PS)", "calcium oscillation score": "68.1 % of control"}, {"sequence": "CTCAAATCAAACTAATATT (sugars l4 d11 l4, PS)", "calcium oscillation score": "98.6 % of control"}, {"sequence": "AACGCACCAGGAACCTTCCA (sugars l3 d14 l3, PS)", "calcium oscillation score": "51.4 % of control"}, {"sequence": "CCTGATCACAAACCCT (sugars l3 d10 l3, PS)", "calcium oscillation score": "100 % of control"}, {"sequence": "CTCCCATCACTAGCACT (sugars l1 d14 l2, PS)", "calcium oscillation score": "38.3 % of control"}, {"sequence": "CCTTTTCTACTCTACTCTCA (sugars l2 d16 l2, PS)", "calcium oscillation score": "62.1 % of control"}, {"sequence": "TTCCATCACTTCGAACTCCT (sugars l3 d14 l3, PS)", "calcium oscillation score": "13.6 % of control"}, {"sequence": "ATCACTTCGAACTCCT (sugars l3 d10 l3, PS)", "calcium oscillation score": "159 % of control"}, {"sequence": "TCATCTTTTCTAGAACC (sugars l4 d10 l3, PS)", "calcium oscillation score": "70.9 % of control"}, {"sequence": "CATTATTCTTTTTTTTTCCA (sugars l4 d14 l2, PS)", "calcium oscillation score": "43.3 % of control"}, {"sequence": "GCACCATATTACACCA (sugars l3 d11 l2, PS)", "calcium oscillation score": "95.9 % of control"}, {"sequence": "TGATTAACCAATTAACCGAA (sugars l3 d14 l3, PS)", "calcium oscillation score": "2.59 % of control"}, {"sequence": "CATAATCCTACCACCAG (sugars l2 d12 l3, PS)", "calcium oscillation score": "61.3 % of control"}, {"sequence": "CCCAGAATTCTAACTAT (sugars l4 d11 l2, PS)", "calcium oscillation score": "77 % of control"}, {"sequence": "AGCATCAGAGGTTTCA (sugars l3 d10 l3, PS)", "calcium oscillation score": "0 % of control"}, {"sequence": "TCCTAATCCTGTGCT (sugars l3 d9 l3, PS)", "calcium oscillation score": "140 % of control"}, {"sequence": "AGTGATTAACCAATTAACCG (sugars l3 d14 l3, PS)", "calcium oscillation score": "5.18 % of control"}, {"sequence": "CTTTTCCCAATTATTAACC (sugars l3 d14 l2, PS)", "calcium oscillation score": "54.5 % of control"}, {"sequence": "CCCGAGCCAAAGCCGA (sugars l3 d10 l3, PS)", "calcium oscillation score": "50.6 % of control"}, {"sequence": "TTCCACTACAAGCTCCA (sugars l3 d12 l2, PS)", "calcium oscillation score": "53.9 % of control"}, {"sequence": "AATAAGAAAGGAACGC (sugars l3 d10 l3, PS)", "calcium oscillation score": "110 % of control"}, {"sequence": "TGGGTGATATTGTCCAGGGA (sugars l3 d14 l3, PS)", "calcium oscillation score": "0 % of control"}, {"sequence": "CATTGGAACTGAGCAC (sugars l3 d10 l3, PS)", "calcium oscillation score": "8.33 % of control"}, {"sequence": "AATATTACATCAGTCT (sugars l4 d8 l4, PS)", "calcium oscillation score": "34.6 % of control"}, {"sequence": "ATTGTCCAGGGACCCAATCT (sugars l3 d14 l3, PS)", "calcium oscillation score": "50.9 % of control"}, {"sequence": "CCCTTCAACATCAGCCA (sugars l2 d13 l2, PS)", "calcium oscillation score": "47.6 % of control"}, {"sequence": "ACCCTTAGACATAACAC (sugars l3 d10 l4, PS)", "calcium oscillation score": "59.7 % of control"}, {"sequence": "TCCACAAACCAACTCAACAT (sugars l2 d15 l3, PS)", "calcium oscillation score": "75.2 % of control"}, {"sequence": "AACCAACTCAACATTACCCT (sugars l2 d16 l2, PS)", "calcium oscillation score": "86.7 % of control"}, {"sequence": "TCCTAATTCCCAAATTCCT (sugars l2 d15 l2, PS)", "calcium oscillation score": "57.4 % of control"}, {"sequence": "CCACTGGCGACTTGTACACG (sugars l3 d14 l3, PS)", "calcium oscillation score": "16.8 % of control"}, {"sequence": "TCCTAAGTCAACCACAC (sugars l4 d11 l2, PS)", "calcium oscillation score": "56.6 % of control"}, {"sequence": "CCGTGGTCTGTCTTGG (sugars l3 d10 l3, PS)", "calcium oscillation score": "42.2 % of control"}, {"sequence": "AAGAGTCACTGCACTGCATT (sugars l3 d14 l3, PS)", "calcium oscillation score": "30.9 % of control"}, {"sequence": "TGGTTTGTAGACTATTTGCA (sugars l3 d14 l3, PS)", "calcium oscillation score": "0 % of control"}, {"sequence": "CTTTATTTCCAAATTCACTT (sugars l2 d1 l1 d12 l4, PS)", "calcium oscillation score": "44.7 % of control"}, {"sequence": "TTGGATCAGAGGGTCT (sugars l3 d10 l3, PS)", "calcium oscillation score": "11.1 % of control"}, {"sequence": "ACAGGAGAGCCATTTCCCAA (sugars l3 d14 l3, PS)", "calcium oscillation score": "42.9 % of control"}, {"sequence": "GGAGGCAGACACCTCGTCAG (sugars l3 d14 l3, PS)", "calcium oscillation score": "51.8 % of control"}, {"sequence": "AATTTAGTCACCATCAC (sugars l4 d9 l4, PS)", "calcium oscillation score": "79.1 % of control"}]}]}
